The values below come from US20040023984A1, “Compounds for the treatment of alzheimer's disease” (priority 1987, published 2004).

Data set [1] has as its system cholinesterase. Particulars: relative to galanthamine; cited from earlier work.
Data set [2] addresses T1, acetylcholinesterase (Homo sapiens, UniProt P22303). As to the kind of experiment: Inhibition of acetylcholinesterase, procedure of Ellman (acetylthiocholine substrate, photometric). The data set is classed as biochemical. The protocol: The anticholinesterase activity of the compounds prepared in the above examples was assayed by an assay for inhibition of acetylcholinesterase following the procedure of G. Ellman, […], 7:88-95 (1961) Acetylthiocholine serves as substrate since it acts like acetylcholine. Acetylcholinesterase cleaves it to thiocholine and acetate which react with dithiobisnitrobenzoate to form a yellow color which is measured photometrically.
This assay was carried out at dilution of 10^−5 molar
The compounds were tested in the assay described after Example 5 but at different concentrations. The results obtained were as follows:
Further compounds were prepared by methods analogous to those described above and were tested in a cholinesterase assay as described above.
(In general: Ellman's reagent forms a yellow product with free thiols.)

Data set [3] has as its target T1, acetylcholinesterase. As to the kind of experiment: Acetylcholinesterase Inhibition Assay (other cholinesterase activity tests, may be less reliable). Particulars: results may be less reliable. In kind it is biochemical.
The subject of data set [4] is nucleas basalis-lesioned animals. As to the kind of experiment: Nucleus basalis model, passive avoidance in shuttle box. In kind it is in vivo, mice. From the text: The following test provides a good animal model for Alzheimer's disease in humans: A selective lesion is placed in a subcortical nucleus (nucleus basalis of Meynert) with a resultant cortical cholinergic deficiency, similar in magnitude to that seen in early to moderate stage Alzheimer's disease. Numerous behavioral deficits, including the inability to learn and retain new information, characterizes this lesion. Drugs that can normalize these abnormalities would have a reasonable expectation of efficacy in Alzheimer's disease. Haroutunian, V, Kanof P, Davis, K L: Pharmacological alleviations of cholinergic-lesion-induced memory defects in rats. Life Sciences, 37:945-952 (1985).
(§1) Galanthamine n-butyl carbamate was tested in the nucleus basalis model for galanthamine discussed in the Hartounian et al paper noted above. In the test, mice were given the drug three and ½ hours before two learning trials in a shuttle box. They are placed in the lighted compartment and receive an electric footshock when they cross into the preferred side, the dark. The next day, they are again placed in the lighted compartment and the time to enter the dark is noted. The latency to enter the dark compartment is the basis for this figure. […] Below 50 mg/kg no side effects were noted.

The test system of data set [5] is mice. As to the kind of experiment: Cholinergic side effects in mice at high doses. The data set is classed as in vivo. The protocol: as §1
The test system of a further data set is normal mice. As to the kind of experiment: Passive avoidance shuttle box test using normal mice. The data set is classed as in vivo. The protocol:
as §1
In a similar test using normal mice, the mice remained in the light (less preferred) side of the shuttle box for over six minutes at the best dose (0.1 mg/kg) as compared to a best dose result of about 90 seconds for the nucleas basalis-lesioned animals.

The target in data set [6] is T1, acetylcholinesterase. As to the kind of experiment: biochemical.
In the next data set the test system is EEG—recorded activity. Particulars: relative to galanthamine; cited from earlier work.
The subject of data set [7] is scopolamine induced memory deficit. The data set is described as follows: Scopolamine dementia dark avoidance test (passive avoidance). The data set is classed as in vivo, male CFW mice. The settings on record: for # > CO/n / % > CO / Mean Latency: Table 2, cut-off 41 seconds. How it is done:
Furnished data on the effects of these compound on cholinesterase activity were used to determine doses for testing. […] The two other compounds were tested at 1,3 and 10 mg/kg sc and did antagonize the scopolamine induced deficit.
Training and testing of passive avoidance were conducted in a two-compartment (light/dark) test cage. On the training day, mice were individually placed in the light half of the cage and after entering the dark compartment, were administered a 3 sec 0.4 mA footshock. They were then removed from the test chamber and returned to their home cages. Twenty-four hours later, the animals were again placed in the lighted half of the test cage and the latency to enter the dark compartment was measured.
All animals in each group of 15 naive male CFW mice were injected twice subcutaneously. Thirty minutes prior to training, animals were administered 3 mg/kg scopolamine HBr or its 0.9% NaCl vehicle. Five minutes prior to training, independent groups were administered one of three doses of the test compounds or the distilled water vehicle. One group in each experiment received vehicle twice, another group received scopolamine and the dH2O vehicle; the remaining groups received scopolamine and a test compound.
A cutoff value (CO), defined as the second-longest latency in the scopolamine/vehicle treated group, was used to determine whether a compound was active. If 20% or more of the animals in a treatment group had latencies greater than the CO value, the compound was considered active at that dose.
The three compounds were tested in two separate experiments; the results are presented below in Tables 1 and 2. Doses considered active are marked with an asterisk (*).

For data set [8], the system named is respiration and heart activity. The settings on record: relative to galanthamine; cited from earlier work.
The conditions of data set [9]: 3 mg/kg; cited from earlier work.
In data set [10] the test system is mice. The data set is described as follows: Profile of Observable Effects (POE), peripheral cholinergic effects. Particulars: subcutaneous.
Protocol: A number of compounds were also evaluated in a standardized Profile of Observable Effects (POE) which involves administering drug to animal in increasing amounts and observing this for up to two hours to see whether peripheral cholinergic effects such as tremor, lacrimation, salivation, pilo erection, defection or red eye occur.
Data set [11] relates to cholinesterase. Particulars: Irwin and Smith, Arch. Int. Pharmacodyn. 127:314-330; cited from earlier work.

pIC50: −log10 of the molar value. Several values for one entry are separate records, joined by “and”; a condition that tells them apart may be missing. Equal values may be shown once. Read-outs that look alike come from different tables or passages of the source.

T1 sequence (P22303 32-614, species assumed): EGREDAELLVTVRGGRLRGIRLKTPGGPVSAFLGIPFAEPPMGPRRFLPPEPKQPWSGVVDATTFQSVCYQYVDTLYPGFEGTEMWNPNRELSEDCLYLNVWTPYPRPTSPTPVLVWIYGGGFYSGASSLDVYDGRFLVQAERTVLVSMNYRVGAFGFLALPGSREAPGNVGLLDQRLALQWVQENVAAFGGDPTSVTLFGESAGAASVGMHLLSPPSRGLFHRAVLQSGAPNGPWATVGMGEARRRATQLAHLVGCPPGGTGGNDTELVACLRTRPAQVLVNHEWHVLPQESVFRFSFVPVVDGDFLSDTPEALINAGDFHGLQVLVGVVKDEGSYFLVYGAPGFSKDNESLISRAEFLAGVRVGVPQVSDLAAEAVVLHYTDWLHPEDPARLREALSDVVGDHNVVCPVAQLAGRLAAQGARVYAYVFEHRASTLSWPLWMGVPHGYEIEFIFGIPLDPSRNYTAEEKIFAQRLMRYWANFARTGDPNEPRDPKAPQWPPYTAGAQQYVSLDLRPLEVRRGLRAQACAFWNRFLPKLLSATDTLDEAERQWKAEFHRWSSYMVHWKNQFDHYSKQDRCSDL

For the compound `COc1ccc2c3c1O[C@H]1C[C@H](O)C=C[C@@]31CCN(C)C2` [epigalanthamine], the “anti-cholinesterase activity as % of that of galanthamine” value with cholinesterase [1] is recorded as 10%.

For `CCCCNC(=O)O[C@@H]1C=CC23CCN(C)Cc4ccc(OC)c(c42)O[C@@H]3C1` (stereo partly shown) [galanthamine n-butyl carbamate], on acetylcholinesterase [2] (10^−5 molar), the “inhibition of acetylcholinesterase at concentration 10^−5” value was found to be 75. The “% Inhibition at 10^−6” value at acetylcholinesterase [3] (10^−6) came out at 37%. Besides, at acetylcholinesterase [3] (10^−7), the “% Inhibition at 10^−7” value stood at 9%. Moreover, on acetylcholinesterase [3] (−10^−5), the “% Inhibition at −10^−5” value came to 44%. In addition, in data set [4] (nucleas basalis-lesioned animals, best dose), the “best dose result, latency to enter the dark compartment” value is given as “about 90 seconds”. Also, the “passive avoidance result compared with galanthamine” value in data set [4] (nucleus basalis model, mice) was “comparable with those obtained with galanthamine”. In addition, the “best dose in passive avoidance test” value in [4] (nucleus basalis model, mice, drug given three and ½ hours before learning trials) came to 0.5 mg/kg; in the data set on normal mice it was 0.1 mg/kg. Moreover, the “dose below which no side effects were noted” value in the data set on mice [5] (mice) was “Below 50 mg/kg”. Moreover, the “side effects and lethality” value in the data set on mice [5] (two mice given 100 mg/kg) is “showed cholinergic side effects but neither died”. Further, in the data set with normal mice (best dose (0.1 mg/kg)), the “time mice remained in the light side of the shuttle box” value was “over six”.

On to `COC1C=C[C@@]23CCN(C)Cc4ccc(O)c(c42)OC3C1` (stereo partly shown) [childanthine], for which the pIC50 at acetylcholinesterase [6] (read-out: IC50, acetyl cholinesterase inhibition) was 6.51 and 7.10.

For `COc1ccc2c3c1OC1CC(O)CC[C@@]31CCN(C)C2` (stereo partly shown) [lycoramine], on acetylcholinesterase [2] (10^−5 M, further compounds, read-out: cholinesterase inhibition at 10^−5 M), the inhibition at 10 µM was found to be 30%. Further, the “concentration required to stimulate EEG-recorded activity, times that required for galanthamine” value in the data set on EEG—recorded activity was “about five”. For the same compound, the “antagonism of scopolamine induced memory deficit” value in data set [7] (10 mg/kg sc) is recorded as “active”. Also, the figures for the “# > CO/n” value in data set [7] (scopolamine + 1 mg/kg sc), in data set [7] (scopolamine + 3 mg/kg sc) and in data set [7] (scopolamine + 10 mg/kg sc) were 1/15, 0/15 and 4/15, respectively. Besides, the “% > CO” value is given as 7% in data set [7] (scopolamine + 1 mg/kg sc); 0% in data set [7] (scopolamine + 3 mg/kg sc, * = dose considered active); 27* % in [7] (scopolamine + 10 mg/kg sc, * = dose considered active). Also, the figures for the “Mean Latency” value in data set [7] (scopolamine + 1 mg/kg sc), in data set [7] (scopolamine + 3 mg/kg sc) and in data set [7] (scopolamine + 10 mg/kg sc) were 26 s, 19 s and 48 s, respectively.

As to `COc1ccc2c3c1OC1CC(=O)C=C[C@@]31CCN(C)C2` (stereo partly shown) [Narwedine, narwedine], the “cholinergic effects on respiration and heart activity, lower than galanthamine” value in [8] was 50-80%. Also, the “anti-cholinesterase activity as % of that of galanthamine” value in the data set with cholinesterase [1] is “less than 1%”. Further, the anticurare activity entry in [9] is reported as “weak”.

As for `CNC(=O)Oc1ccc2c3c1OC1CC(O)C=CC31CCN(C)C2` (stereo not shown) [O-demethyl-galanthamine-13-methyl carbamate], the negative logarithm of the IC50 (pIC50) at acetylcholinesterase [6] (IC50, acetyl cholinesterase inhibition, S 0.3 mM) is 8.70; at acetylcholinesterase [6] (IC50, acetyl cholinesterase inhibition, S 5 mM) it was 8.70. Further, the figures for the “POE, mice showing peripheral cholinergic effects” value with mice [10] (0.31 mg/kg), in the data set with mice [10] (0.63 mg/kg) and with mice [10] (1 mg/kg) were “not noted in any of four mice”, “noticeable in one mouse out of four” and “in all four mice”, respectively.

For the compound `COc1ccc2c3c1OC1CCCC[C@@]31CCN(C)C2` (stereo partly shown) [deoxylycoramine], the cholinesterase activity entry in the data set with cholinesterase [11] is listed as “some activity”.

What is called % Inhibition is how much of the control response was suppressed. A word on the pIC50: it is the negative decadic logarithm of the IC50, by convention in mol/L. The inhibition is the drop in the measured response relative to a control, in per cent.
